# Measured values published in patent US20250025520A1, “MICROBE-BASED MODULATION OF SEROTONIN BIOSYNTHESIS” (The Regents of the University of California, priority 2014, published 2025).
# Legend:
# colon 5-HT = assay: Colon 5-HT by ELISA, normalized to total protein; type: in vivo, mouse; conditions: for effects of a single rectal injection on raising colon 5-HT levels: time course
# From the text: (§1) Blood samples were collected by cardiac puncture and spun through SST vacutainers (Becton Dickinson) for serum separation or PST lithium hepararin vacutainers (Becton Dickinson, Franklin Lakes, NJ) for plasma separation. The entire length of the colon or 1 cm regions of the distal, medial and proximal colon of the small intestine were washed in PBS, flushed with PBS to remove luminal contents, and sonicated on ice in 10 s intervals at 20 mV in ELISA standard buffer supplemented with ascorbic acid (Eagle Biosciences, Nashua, NH). Serotonin levels were detected in sera and supernatant of tissue homogenates by ELISA according to the manufacturer's instructions (Eagle Biosciences, Nashua, NH). Readings from tissue samples were normalized to total protein content as detected by BCA assay (Thermo Pierce). Data compiled across multiple experiments are expressed as 5-HT concentrations normalized to SPF controls within each experiment.
# serum 5-HT = assay: Serum 5-HT by ELISA; type: in vivo, mouse
# From the text: as §1
# TPH1 = assay: Intestinal qRT-PCR, colonic TPH1 expression relative to GAPDH; type: in vivo, mouse
# Experimental: The entire length of the mouse colon, or 1 cm regions of the distal, medial and proximal of the mouse small intestine were washed in PBS, flushed with PBS to remove luminal contents, and homogenized in ice-cold Trizol for RNA isolation using the RNeasy Mini Kit with on-column genomic DNA-digest (Qiagen) and cDNA synthesis using iScript (Biorad). qRT-PCR was performed on an ABI 7900 thermocycler using SYBR green master mix with Rox passive reference dye (Roche) and validated primer sets obtained from Primerbank (Harvard).
# SLC6A4 = assay: Intestinal qRT-PCR, colonic SLC6A4 expression relative to GAPDH; type: in vivo, mouse; conditions: Sp-colonized mice, PCPA intrarectally
# [1] = test system: colonic enterochromaffin cells (ECs); assay: Immunofluorescence staining of 5-HT and CgA in colon; type: in vivo, mouse
# Experimental: (§2) Mouse colon was cut into distal, medial and proximal sections, and 1 cm regions of the distal, medial and proximal small intestine were fixed in Bouin's solution (Sigma Aldrich) overnight at 4° C., washed and stored in 70% ethanol. Intestinal samples were then paraffin-embedded and cut into 10 um longitudinal sections by Pacific Pathology, Inc (San Diego, CA). Sections were stained using standard procedures. Briefly, slides were deparaffinized, and antigen retrieval was conducted for 1 hr in a 95° C. water bath in 10 mM sodium citrate, pH 6.0 or DAKO solution (Agilent Technologies). […] For 5-HT and CgA staining, numbers of positively-stained puncta were scored blindly, normalized to total area of intestinal mucosa using ImageJ software (NIH) (Schneider et al., Nature Methods 9:671-675 (2012)), and then averaged across biological replicates. For calretinin, cfos and 5HT4 staining, fluorescence intensity for individual stains was quantified and normalized to total area of intestinal submucosa and muscularis externa using ImageJ software. Colocalization was measured and analyzed using the Coloc2 plug-in for Fiji software described in Schindelin et al., Nature Methods 9:676-682 (2012). […]
# [2] = test system: intrinsic afferent primary neurons (IPANs) of the myenteric plexus; assay: c-fos and calretinin (Calb2) colocalization; type: in vivo, mouse; conditions: Sp-colonized mice treated with PCPA
# Experimental: as §2
# Tail bleed assay = type: in vivo, mouse; conditions: Sp-colonized mice, intrarectal PCPA
# Experimental: Mice were anesthetized with isoflurane and the distal 6 mm portion of the tail was transected using a fresh razor blade. The tail was placed immediately at a 2 cm depth into a 50 mL conical tube containing saline pre-warmed to 37° C. (Liu et al., World J. Exp. Med. 2:30-36 (2012)). Time to bleeding cessation was recorded, with continued recording if re-bleeding occurred within 15 seconds of initial cessation and a maximum total bleed time of 5 minutes. Mice were sacrificed by CO2 immediately after the assay.
# platelets = assay: Platelet aggregation assay, collagen stimulation, flow cytometry; type: in vivo, mouse; conditions: Sp-colonized mice, colonic PCPA injection
# Experimental: Blood samples were collected by cardiac puncture, diluted with a 2× volume of HEPES medium (132 mM NaCl, 6 mM KCl, 1 mM MgSO4, 1.2 mM KH2PO4, 20 mM HEPES, 5 mM glucose; pH 7.4) and centrifuged through PST lithium hepararin vacutainers (Becton Dickinson). Expression of platelet activation markers was measured by flow cytometry (Nieswandt et al., Methods Mol. Biol. 272:255-268 (2004); Ziu et al., J. Mol. Cell. Cardiol. 52:1112-1121 (2012)). Briefly, PRP samples were supplemented with 1 mM CaCl2, and 1×10^6 platelets were stimulated with 10 μg/ml type-1 HORM collagen (Chronolog), and stained with anti-JON/APE, anti-P-selectin-FITC (Emfret Analytics), anti-CD63-PE (Biologend), anti-CD41-FITC (BD Biosciences) and anti-CD9-APC (Abcam) for 15 min at room temperature. Samples were then washed in PBS, fixed with 0.5% formaldehyde and analyzed using a FACS Calibur flow cytometer (BD Biosciences). Platelet aggregation assays were conducted according to methods described in (De Cuyper et al., Blood 121:070-e80 (2013)). Briefly, 4×10^6 platelets were stained separately with CD9-APC or CD9-PE (Abcam) for 15 minutes at room temperature and then washed with HEPES medium. Labeled platelets were mixed 1:1 and incubated for 15 minutes at 37° C., with shaking at 600 rpm. Platelets were then stimulated with 10 μg/ml type-1 collagen for 2 min and fixed in 0.5% formaldehyde for flow cytometry. […]
# RIN14B cells = assay: RIN14B in vitro culture, 5-HT release; conditions: for 5-HT in RIN14B chromaffin cell cultures: α-tocopherol 8 uM, butyrate 100 uM, cholate 75 uM, deoxycholate 25 uM, p-aminobenzoate 1 uM, propionate 100 uM, tyramine 100 uM
# TPH1 in RIN14B cells = assay: RIN14B in vitro culture, TPH1 expression by qRT-PCR; conditions: colonic luminal filtrate, or 15 uM ionomycin; relative to vehicle-treated controls
# [3] = GF mice colonized with hSp, PCPA treatment
# [4] = Sp-colonized GF mice, PCPA intrarectally twice daily for 3 days
# [5] = GF mice, oral supplementation in water 1.5 mg/ml, 2 weeks
# [6] = GF mice, intrarectal injection: deoxycholate 125 mg/kg, α-tocopherol 2.25 mg/kg, PABA 1.37 μg/kg, tyramine 0.137 mg/kg, oleanolate 0.46 mg/kg, vs vehicle
compound,measurement,setting,value
"N[C@@H](Cc1ccc(Cl)cc1)C(=O)O (racemic) [PCPA, parachlorophenylalanine]",colon 5-HT,colon 5-HT; [3],blocking increases
same,colon 5-HT levels,colon 5-HT; [4],sufficiently blocks the ability of Sp to elevate
same,serum 5-HT,serum 5-HT; [3],blocking increases
same,serum 5-HT levels,serum 5-HT; [4],sufficiently blocks the ability of Sp to elevate
same,colonic TPH1 expression,"TPH1; Sp-colonized mice, PCPA intrarectally",compensatory increase in colonic TPH1
same,colonic SLC6A4 expression,SLC6A4,decrease in SLC6A4
same,5-HT staining in colonic ECs,[1]; [3],blocking increases
same,5-HT staining in ECs,[1]; [4],sufficiently blocks
same,IPAN activation,[2],decreases IPAN activation
same,Sp effect on bleeding time,Tail bleed assay,attenuated
same,Sp effect on platelet aggregation,platelets,attenuated
"N[C@@H](Cc1c[nH]c2ccc(O)cc12)C(=O)O [5-HTP, 5-hydroxytryptophan]",colon 5-HT,colon 5-HT; [5],sufficiently ameliorates deficits
same,serum 5-HT,serum 5-HT; [5],sufficiently ameliorates deficits
"Nc1ccc(C(=O)O)cc1 [PABA, p-aminobenzoate]",colon 5-HT,colon 5-HT; [6],Increases
same,serum 5-HT,serum 5-HT; [6],Increases
same,5-HT in RIN14B chromaffin cell cultures,RIN14B cells,elevate 5-HT
"N[C@@H](Cc1c[nH]c2ccccc12)C(=O)O [Trp, tryptophan]",colon 5-HT,colon 5-HT; [5],no restorative effect
same,serum 5-HT,serum 5-HT; [5],no restorative effect
C[C@H](CCC(=O)O)[C@H]1CC[C@H]2[C@@H]3[C@H](O)C[C@@H]4C[C@H](O)CC[C@]4(C)[C@H]3C[C@H](O)[C@]12C [cholate],5-HT in RIN14B chromaffin cell cultures,RIN14B cells,elevate 5-HT
"C[C@H](CCC(=O)O)C[C@H](C)C[C@H](C)C(=O)/C=C(\O)[C@H](C)C[C@H](C)C/C=C/[C@@H](C)[C@@H](O)[C@@H](C)[C@@H](O)C[C@@H]1CC[C@@](C)([C@H]2CC[C@@](C)([C@@H](C)O)O2)O1 [ionomycin, reference compound]",5-HT released from RIN14B cells,"RIN14B cells; colonic luminal filtrate 1 hr at 37° C., or 15 uM ionomycin, relative to vehicle-treated controls",stimulates 5-HT release
same,TPH1 expression in RIN14B cells,TPH1 in RIN14B cells,no effect on TPH1 expression
CC1(C)CC[C@]2(C(=O)O)CC[C@]3(C)C(=CC[C@@H]4[C@@]5(C)CC[C@H](O)C(C)(C)[C@@H]5CC[C@]43C)[C@@H]2C1 [oleanolate],colon 5-HT,colon 5-HT; [6],no statistically significant effect
same,serum 5-HT,serum 5-HT; [6],no statistically significant effect
CCC(=O)O [propionate],5-HT in RIN14B chromaffin cell cultures,RIN14B cells,elevate 5-HT
NCCc1ccc(O)cc1 [tyramine],colon 5-HT,colon 5-HT; [6],Increases
same,serum 5-HT,serum 5-HT; [6],Increases
same,5-HT in RIN14B chromaffin cell cultures,RIN14B cells,elevate 5-HT
Cc1c(C)c2c(c(C)c1O)CC[C@@](C)(CCC[C@H](C)CCC[C@H](C)CCCC(C)C)O2 [α-tocopherol],colon 5-HT,colon 5-HT; [6],Increases
same,effects of a single rectal injection on raising colon 5-HT levels,colon 5-HT; GF mice,weak and transient
same,serum 5-HT,serum 5-HT; [6],Increases
same,5-HT in RIN14B chromaffin cell cultures,RIN14B cells,elevate 5-HT
Bacteroides fragilis,serum 5-HT levels,"serum 5-HT; GF mice colonized, monoassociated or conventionalized, compared with GF and SPF controls",deficits in serum 5-HT that are comparable to those seen in GF mice
deoxycholate,colon 5-HT,colon 5-HT; [6],sufficiently increases
same,effects of a single rectal injection on raising colon 5-HT levels,colon 5-HT; GF mice,weak and transient
same,serum 5-HT,serum 5-HT; [6],sufficiently increases
same,colonic TPH1 expression,"TPH1; GF mice, intrarectal deoxycholate 125 mg/kg, 1 hr post injection",elevations in colonic TPH1 expression
same,5-HT in RIN14B chromaffin cell cultures,RIN14B cells,elevate 5-HT
